This passage reports TGI results from PubChem BioAssay (NCI).

Among the test systems are CAKI-1 renal; HCC-2998 colon; HOP-62 NSCLC; OVCAR-4 ovarian; RXF 393 renal; SF-539 CNS; SW-620 colon; TK-10 renal; MDA-MB-231 breast; MDA-MB-435; NCI/ADR-RES ovarian.
What all share (experiment): NCI-60 cell line screen, 48 h

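Where inhibition never reached the appropriate level, the endpoint shown equals the highest concentration tested. Otherwise, values were interpolated linearly from a five-concentration, 48-hour dose response in 96-well plates. The concentration for full growth arrest is given as TGI.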

For `CSc1ccc2c(cc1=O)[C@@H](NC(=O)c1ccc(F)cc1)CCc1cc(O)c(O)c(O)c1-2`, the TGI in the assay with CAKI-1 renal, in the assay on HCC-2998 colon, with HOP-62 NSCLC, in the assay on OVCAR-4 ovarian, with RXF 393 renal and in the assay on SF-539 CNS was more than 100 µM in each case. The TGI with SW-620 colon and with TK-10 renal was more than 100 µM in each case.
Regarding `CCSc1nc2n(c(=S)n1)CCN2C`, the TGI came to 55.4 µM in the assay on CAKI-1 renal; 30.3 µM in the assay with HCC-2998 colon; 68.8 µM in the assay with HOP-62 NSCLC; 44.5 µM in the assay on OVCAR-4 ovarian; 23.7 µM with RXF 393 renal; 58.9 µM in the assay on SF-539 CNS. In addition, in the assay on SW-620 colon, the TGI worked out at 56.9 µM.
With `C/C(=N\Nc1nc2ccccc2o1)c1ccncn1`, the TGI in the assay on CAKI-1 renal is 42.6 µM; with HCC-2998 colon, 29 µM; with HOP-62 NSCLC, more than 68.7 µM; in the assay on MDA-MB-231 breast, 97.1 µM; in the assay with MDA-MB-435, more than 75.8 µM; with NCI/ADR-RES ovarian, 0.84 µM. The TGI was more than 100 µM in the assay on OVCAR-4 ovarian, more than 100 µM in the assay with SF-539 CNS, more than 39.3 µM in the assay with SW-620 colon and more than 63.4 µM with TK-10 renal.
For `C/C(=N/N)c1ccc2[nH]c3c(C)cc([N+](=O)[O-])c(C)c3c2c1`, the TGI in the assay with HCC-2998 colon turned out to be 31.6 µM; in the assay on HOP-62 NSCLC, 20.9 µM; in the assay on OVCAR-4 ovarian, 38.3 µM; in the assay on SF-539 CNS it was 29.3 µM; in the assay on SW-620 colon, 24.7 µM; with TK-10 renal it was 28.4 µM.
Take `CCC/C(=N\NC(=O)c1cc2ccccc2cc1O)C(CC)C(=O)CCC(=O)N(Cc1ccccc1)Cc1ccccc1` (stereo not given): the TGI in the assay on CAKI-1 renal, in the assay with HCC-2998 colon, in the assay on HOP-62 NSCLC, with OVCAR-4 ovarian, in the assay with RXF 393 renal and in the assay on SF-539 CNS was more than 100 µM in each case. Further, the TGI in the assay on SW-620 colon and in the assay on TK-10 renal was more than 100 µM each time.
On to `N/N=C(\C(=O)Nc1ccc([N+](=O)[O-])cc1)C(C1=Nc2cc([N+](=O)[O-])ccc2NC1)[N+](=O)[O-]` (stereo not given), for which the TGI in the assay with CAKI-1 renal, in the assay on HCC-2998 colon, with HOP-62 NSCLC, in the assay on MDA-MB-231 breast, in the assay on MDA-MB-435 and with NCI/ADR-RES ovarian was more than 100 µM each time. In addition, the TGI with OVCAR-4 ovarian, in the assay with RXF 393 renal, in the assay with SF-539 CNS, in the assay with SW-620 colon and in the assay on TK-10 renal was more than 100 µM throughout.
In the case of `Nc1ccc(N)c2c1C(=O)c1c(N)ccc(N)c1C2=O`, the TGI was more than 100 µM with CAKI-1 renal; more than 100 µM in the assay with HCC-2998 colon; more than 100 µM with HOP-62 NSCLC; 97.4 µM in the assay with OVCAR-4 ovarian; more than 93.5 µM in the assay with RXF 393 renal; more than 88.8 µM with SF-539 CNS. Moreover, the TGI with SW-620 colon and with TK-10 renal was more than 100 µM in each case.
On to `CC(=O)O[C@H]1[C@@H](N2CCN(C)CC2)C[C@H]2[C@@H]3CC=C4C[C@@H](N5CCCC5)CC[C@]4(C)[C@H]3CC[C@@]21C`, for which the TGI in the assay with CAKI-1 renal, in the assay with HCC-2998 colon, in the assay with HOP-62 NSCLC, in the assay on MDA-MB-231 breast, in the assay on MDA-MB-435 and with NCI/ADR-RES ovarian was more than 100 µM each time. The TGI with OVCAR-4 ovarian was more than 100 µM; with RXF 393 renal, 71.8 µM; with SF-539 CNS, 29.3 µM; in the assay with SW-620 colon, more than 100 µM; in the assay with TK-10 renal, more than 100 µM.
As for `Cc1cc2[nH]c3c(C#N)c(-c4ccccc4)c(CN4CCOCC4)c(=O)n3c2cc1C`, the TGI with CAKI-1 renal, with HCC-2998 colon, with HOP-62 NSCLC, in the assay with MDA-MB-231 breast, in the assay with MDA-MB-435 and in the assay on NCI/ADR-RES ovarian was more than 100 µM throughout. Moreover, the TGI in the assay on OVCAR-4 ovarian, in the assay on RXF 393 renal, in the assay with SF-539 CNS, with SW-620 colon and in the assay with TK-10 renal was more than 100 µM in each case.
Turning to `O=C(CSc1nnc(-c2ccc(N=Cc3ccc(Cl)cc3)cc2)o1)Nc1cccc(Cl)c1`, the TGI in the assay on HOP-62 NSCLC, in the assay with OVCAR-4 ovarian, in the assay with RXF 393 renal, with SW-620 colon and in the assay with TK-10 renal was more than 100 µM throughout.
Consider `COc1cc(C=O)c(-c2cc3c(cc2C=O)OCO3)c(OC)c1OC`, for which the TGI with CAKI-1 renal was more than 290 µM; in the assay with HCC-2998 colon, more than 290 µM; in the assay with HOP-62 NSCLC, more than 290 µM; with RXF 393 renal, 154 µM; in the assay with SF-539 CNS it was 188 µM; in the assay on SW-620 colon it was more than 290 µM. This molecule returned a TGI in the assay on TK-10 renal of more than 290 µM.
`Cc1cc2c(c(N)c1C)C(=O)c1ccccc1C2=O`: the TGI in the assay with CAKI-1 renal is 55.3 µM; in the assay with HCC-2998 colon it was more than 100 µM; in the assay with HOP-62 NSCLC, 40 µM; in the assay on OVCAR-4 ovarian it was 41.4 µM; in the assay with RXF 393 renal, more than 100 µM; in the assay on SF-539 CNS, 31.5 µM. The TGI was more than 100 µM in the assay on SW-620 colon and 93.1 µM with TK-10 renal.
For the molecule `O=c1[nH]c(=O)n(C2CC(O)C(CO)O2)cc1C#Cc1cc(F)cc(F)c1` (stereo not given), the TGI in the assay with CAKI-1 renal, in the assay on HCC-2998 colon, with HOP-62 NSCLC, in the assay on OVCAR-4 ovarian, with SF-539 CNS and in the assay on SW-620 colon was more than 100 µM each time.
For the molecule `CN(C)/C=N/c1nc2ncn(CCOC(=O)c3ccccc3)c2c(=O)[nH]1`, the TGI in the assay with CAKI-1 renal, in the assay on HOP-62 NSCLC, with OVCAR-4 ovarian, with RXF 393 renal, in the assay on SF-539 CNS and in the assay with SW-620 colon was more than 100 µM in each case. Besides, in the assay with TK-10 renal, the TGI was more than 100 µM.
Turning to `COc1ccc(C#CCC(OC2OC(CO)C(O)C(O)C2O)C(O)c2ccc(OC)c(OC)c2)cc1OC` (stereo not given), the TGI with CAKI-1 renal, in the assay with HCC-2998 colon, with HOP-62 NSCLC, with OVCAR-4 ovarian, with RXF 393 renal and in the assay with SF-539 CNS was more than 100 µM in each case. The TGI with SW-620 colon was more than 100 µM.
